Values of other authors, collected in patent publication US9597306B1, “Fumarate compounds, pharmaceutical compositions thereof, and methods of use” (priority 2015, dated 2017).

aqueous solubility: poor
SMILES: COC(=O)/C=C/C(=O)OC [DMF, dimethylfumarate]
